Measured values taken from PubChem BioAssay AID248 (DTP/NCI, 2004).
Toxic doses and inconclusive results are not listed. Rule as the data show it: active = T/C of 150% or more; inactive = T/C below 125%.

Test system: L1210 leukemia ip in BDF1 mice, survival T/C
Experiment: NCI In Vivo Anticancer Drug Screen. Data for tumor model L1210 Leukemia (intraperitoneal) in B6D2F1 (BDF1) mice
Details: endpoint: mean survival time, higher = longer survival
In short: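 Transplantable tumor model; survival measured in treated vs vehicle control mice. Value = treated/control.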

[1] = dose: 100.0 mg/kg/injection, schedule: Q01DX001 (ip), vehicle: saline
[2] = dose: 200.0 mg/kg/injection, schedule: Q01DX001 (ip), vehicle: saline
[3] = dose: 400.0 mg/kg/injection, schedule: Q01DX001 (ip), vehicle: saline
[4] = dose: 100.0 mg/kg/injection, schedule: Q01DX009 (ip), vehicle: saline with Tween-80
[5] = dose: 100.0 mg/kg/injection, schedule: Q04DX003 (ip), vehicle: saline with Tween-80
[6] = dose: 200.0 mg/kg/injection, schedule: Q01DX009 (ip), vehicle: saline with Tween-80
[7] = dose: 200.0 mg/kg/injection, schedule: Q04DX003 (ip), vehicle: saline with Tween-80
[8] = dose: 400.0 mg/kg/injection, schedule: Q04DX003 (ip), vehicle: saline with Tween-80
[9] = dose: 100.0 mg/kg/injection, schedule: Q01DX001 (ip), vehicle: Klucel (hydroxypropylcellulose) (HPC)
[10] = dose: 100.0 mg/kg/injection, schedule: Q01DX009 (ip), vehicle: Klucel (hydroxypropylcellulose) (HPC)
[11] = dose: 200.0 mg/kg/injection, schedule: Q01DX001 (ip), vehicle: Klucel (hydroxypropylcellulose) (HPC)
[12] = dose: 200.0 mg/kg/injection, schedule: Q01DX009 (ip), vehicle: Klucel (hydroxypropylcellulose) (HPC)
[13] = dose: 400.0 mg/kg/injection, schedule: Q01DX001 (ip), vehicle: Klucel (hydroxypropylcellulose) (HPC)
[14] = dose: 400.0 mg/kg/injection, schedule: Q01DX009 (ip), vehicle: Klucel (hydroxypropylcellulose) (HPC)
[15] = dose: 100.0 mg/kg/injection, schedule: Q04DX003 (ip), vehicle: Klucel (hydroxypropylcellulose) (HPC)
[16] = dose: 200.0 mg/kg/injection, schedule: Q04DX003 (ip), vehicle: Klucel (hydroxypropylcellulose) (HPC)
[17] = dose: 400.0 mg/kg/injection, schedule: Q04DX003 (ip), vehicle: Klucel (hydroxypropylcellulose) (HPC)

Measured: T/C

CCOP(=S)(N/N=C1/C2(C)CCC(C2)C1(C)C)OCC (configuration not stated)
inactive: [1] 97 % of control | [2] 97 % of control | [3] 91 % of control

CCOC(=O)C(C#N)C(C(C)=O)C(=O)OCC (configuration not stated)
inactive: dose: 25.0 mg/kg/injection, schedule: Q01DX009 (ip), vehicle: saline sonified 120 % of control | dose: 50.0 mg/kg/injection, schedule: Q01DX009 (ip), vehicle: saline sonified 124 % of control | dose: 75.0 mg/kg/injection, schedule: Q01DX001 (ip), vehicle: other 94 % of control | dose: 100.0 mg/kg/injection, schedule: Q01DX009 (ip), vehicle: saline sonified 104 % of control | dose: 100.0 mg/kg/injection, schedule: Q04DX003 (ip), vehicle: saline sonified 110 % of control | dose: 150.0 mg/kg/injection, schedule: Q01DX001 (ip), vehicle: other 102 % of control | dose: 300.0 mg/kg/injection, schedule: Q01DX001 (ip), vehicle: other 100 % of control

O=[N+]([O-])c1ccc(NCCO)c([N+](=O)[O-])c1
inactive: [4] 98 % of control | [5] 88 % of control | [6] 106 % of control | [7] 97 % of control | [8] 88 % of control

Cc1ccc(C(C)(O)CC(O)(C(F)(F)F)C(F)(F)F)cc1 (configuration not stated)
inactive: [9] 104 % of control | [10] 99 % of control | [11] 106 % of control | [12] 99 % of control | [13] 96 % of control | [14] 98 % of control

O=C1CCCO1
inactive: dose: 100.0 mg/kg/injection, schedule: Q04DX003 (ip), vehicle: saline 92 % of control | dose: 200.0 mg/kg/injection, schedule: Q04DX003 (ip), vehicle: saline 100 % of control | dose: 400.0 mg/kg/injection, schedule: Q04DX003 (ip), vehicle: saline 94 % of control

CC(=O)CCNC1(c2ccccc2)CCCCC1
inactive: [9] 95 % of control | [11] 95 % of control

CCN(CC)CCCCCCNc1ccnc2cc(Cl)ccc12
inactive: dose: 50.0 mg/kg/injection, schedule: Q01DX001 (ip), vehicle: carboxymethylcellulose (CMC) 95 % of control

CCC(CC)C(=O)NC(N)=O
inactive: [15] 98 % of control | [16] 103 % of control | [17] 98 % of control

O=C(NCCN1CCOCC1)c1ccc(C(=O)NCCN2CCOCC2)cc1
inactive: [1] 103 % of control | [2] 105 % of control | [3] 100 % of control

CCCN(CCC)CCCCN(CCC)CCCN(CCC)CCC
inactive: [1] 107 % of control | [2] 94 % of control

Cc1cc(=O)oc2cc(O)ccc12
inactive: [15] 100 % of control | [16] 98 % of control

O=C(NCCCCOc1ccc([N+](=O)[O-])cc1Cl)c1ccc(S(=O)(=O)F)cc1
inactive: [4] 93 % of control | [5] 92 % of control | [6] 93 % of control | [7] 93 % of control | dose: 400.0 mg/kg/injection, schedule: Q01DX009 (ip), vehicle: saline with Tween-80 100 % of control | [8] 111 % of control

COC(=O)C1(C(=O)OC)C2CCCCC21C (configuration not stated)
inactive: [9] 103 % of control | [10] 102 % of control | [15] 106 % of control | [11] 102 % of control | [12] 101 % of control | [16] 106 % of control | [13] 95 % of control | [14] 102 % of control | [17] 101 % of control
